Reference: patent publication US20260053811A1, “METHODS OF TREATING HYPERTENSION IN OBESE SUBJECTS” (Mineralys Therapeutics, Inc., priority 2022, published 2026)

System: hypertensive subjects
Experiment: Seated automated office blood pressure (AOBP) in randomized, placebo-controlled, dose-ranging study
Assay type: in vivo, human
Conditions: Part 1
Protocol: A randomized, double-blinded, placebo-controlled, dose-ranging, multicenter study was conducted to evaluate the effect of orally administered Compound A HBr on blood pressure for the treatment of hypertension in male and female subjects ≥18 years of age.
The study consists of two parts. For enrollment into Part 1 of the study, a subject's value of plasma renin activity (PRA) must be ≤1 ng/mL/h based on morning measurement. If the value of PRA >1 ng/mL/h based on morning measurement, then subjects may be eligible to enter Part 2 of the study.
For Part 1, 163 enrolled subjects ≥18 years of age were randomized into 6 equal treatment groups (1:1:1:1:1:1) to 12.5 mg BID, 25 mg BID, 12.5 mg QD, 50 mg QD, 100 mg QD, or placebo. After a review of interim clinical data, the 2 lowest dose levels (12.5 mg QD and 12.5 mg BID) were stopped for future randomization due to a lack of consistent meaningful reduction of blood pressure, but the patients randomized to that point remained in the study through completion. Thus, after the review of interim clinical data, subjects were randomized into 4 equal treatment groups (1:1:1:1) to 25 mg BID, 50 mg QD, 100 mg QD, or placebo.
For Part 2, 36 enrolled subjects ≥18 years of age were randomized (5:1) to either 100 mg QD Compound A HBr or placebo such that the Compound A HBr treatment group consisted of approximately 30 subjects and the placebo treatment group will consist of approximately 6 subjects.
Subjects orally administered the assigned study drug (Compound A HBr or placebo) according to the assigned dosing regimen for 8 weeks beginning on Study Day 1. All subjects in Part 1 (regardless of dosing group) received BID dosing to preserve the integrity of the blind; active drug is administered as the morning dose for all QD dose groups. Subjects returned to the research facility or were seen by the clinical investigator or approved home health care professional at the end of Study Weeks 1, 2, 3, 4, 5, 6, 7, and 8 (±2 days) for protocol-defined efficacy and safety assessments and procedures, assessment of adverse events (AEs), and confirmation of compliance with study drug usage. Subjects also completed a telephone visit and blood pressure (BP) check at home approximately 3 days post last dose of study drug. Subjects attended up to 14 full clinic visits, including a pre-Screening visit, a Screening/start of Placebo Run-in visit, a second visit during Placebo Run-in, a clinic visit to initiate the ABPM procedure, a Randomization visit, 8 weekly visits during double-blind treatment, and an end-of-study visit scheduled 4 weeks after the last study treatment for final efficacy and safety assessments.
An automated oscillometric sphygmomanometer device was used to measure the subjects' systolic and diastolic blood pressure in office after approximately 5 minutes of rest in the seated position.
The primary endpoint is the change in office-measured (mean of last 2 of 5 unattended measurements using an automated oscillometric sphygmomanometer device after approximately 5 minutes of rest in the seated position) systolic blood pressure (SBP) from baseline to the end of Study Week 8.
Secondary endpoints of this study were: • (a) Change in 24-hour ambulatory blood pressure monitoring (ABPM) parameters (systolic and diastolic) from baseline to the end of Study Week 7. • (b) Change in office-measured SBP from baseline to the end of Study Weeks 1, 2, 3, 4, 5, 6, and 7. • (c) Change in office-measured diastolic blood pressure (DBP) from baseline to the end of Study Weeks 1, 2, 3, 4, 5, 6, 7, and 8. • (d) Proportion of subjects who achieve office-measured BP of ≤130/80 mm Hg by the end of Study Week 8.

[1] = 50 mg QD, Systolic Blood Pressure Tertile at Baseline High
[2] = 50 mg QD, Systolic Blood Pressure Tertile at Baseline Low
[3] = 50 mg QD, Systolic Blood Pressure Tertile at Baseline Middle
[4] = 50 mg QD, Thiazide Diuretic Use at Baseline No
[5] = 50 mg QD, Thiazide Diuretic Use at Baseline Yes

Compound: CC(=O)N[C@H]1CC[C@H](NC(=O)CN2CCN(c3nncc(-c4ccc(C)cc4)n3)CC2)CC1 [Compound A HBr]
- Mean (SD) Change from Baseline at Week 8 in Automated Office-Measured Diastolic Blood Pressure (50 mg QD, Seated SBP Tertile Middle): −10.63 (7.25) mmHg
- Mean (SD) Automated Office-Measured Diastolic Blood Pressure at Wk 8 (50 mg QD, Sex Female): 75.67 (12.10) mmHg
- Mean (SD) Automated Office-Measured Systolic Blood Pressure at Wk 8 (50 mg QD, Sex Female): 125.67 (11.97) mmHg
- Mean (SD) Change from Baseline at Week 8 in Automated Office-Measured Diastolic Blood Pressure (50 mg QD, Sex Female): −9.20 (10.37) mmHg
- Mean (SD) Change from Baseline at Week 8 in Automated Office-Measured Systolic Blood Pressure (50 mg QD, Sex Female): −15.97 (18.44) mmHg
- Mean (SD) Automated Office-Measured Diastolic Blood Pressure at Wk 8 (50 mg QD, Sex Male): 78.15 (6.52) mmHg
- Mean (SD) Change from Baseline at Week 8 in Automated Office-Measured Diastolic Blood Pressure (50 mg QD, Sex Male): −6.73 (7.65) mmHg
- Mean (SD) Change from Baseline at Week 8 in Automated Office-Measured Systolic Blood Pressure (50 mg QD, Sex Male): −9.96 (15.67) mmHg
- Mean (SD) Automated Office-Measured Systolic Blood Pressure at Wk 8 [1]: 127.25 (17.59) mmHg
- Mean (SD) Change from Baseline at Week 8 in Automated Office-Measured Systolic Blood Pressure [1]: −29.25 (14.31) mmHg
- Mean (SD) Automated Office-Measured Systolic Blood Pressure at Wk 8 [2]: 130.25 (12.04) mmHg
- Mean (SD) Change from Baseline at Week 8 in Automated Office-Measured Systolic Blood Pressure [2]: −2.58 (12.54) mmHg
- Mean (SD) Automated Office-Measured Systolic Blood Pressure at Wk 8 [3]: 127.63 (13.35) mmHg
- Mean (SD) Change from Baseline at Week 8 in Automated Office-Measured Systolic Blood Pressure [3]: −13.00 (14.05) mmHg
- Automated Office-Measured Diastolic Blood Pressure, Week 8, Mean (SD) [4]: 78.00 (6.42) mmHg
- Mean (SD) Automated Office-Measured Systolic Blood Pressure at Wk 8 [4]: 130.00 (13.65) mmHg
- Mean (SD) Change from Baseline at Week 8 in Automated Office-Measured Diastolic Blood Pressure [4]: −4.71 (7.77) mmHg
- Mean (SD) Change from Baseline at Week 8 in Automated Office-Measured Systolic Blood Pressure [4]: −7.67 (15.11) mmHg
- Automated Office-Measured Diastolic Blood Pressure, Week 8, Mean (SD) [5]: 75.94 (11.89) mmHg
- Mean (SD) Automated Office-Measured Systolic Blood Pressure at Wk 8 [5]: 127.63 (14.08) mmHg
- Mean (SD) Change from Baseline at Week 8 in Automated Office-Measured Diastolic Blood Pressure [5]: −10.56 (9.49) mmHg
- Mean (SD) Change from Baseline at Week 8 in Automated Office-Measured Systolic Blood Pressure [5]: −17.31 (17.91) mmHg
- Mean (SD) Automated Office-Measured Systolic Blood Pressure at Wk 8 (100 mg QD, ACEi/ARB No): 116.80 (7.19) mmHg
- Mean (SD) Change from Baseline at Week 8 in Automated Office-Measured Systolic Blood Pressure (100 mg QD, ACEi/ARB No): −23.70 (8.89) mmHg
- Mean (SD) Automated Office-Measured Systolic Blood Pressure at Wk 8 (100 mg QD, ACEi/ARB Yes): 134.90 (13.12) mmHg
- Mean (SD) Change from Baseline at Week 8 in Automated Office-Measured Systolic Blood Pressure (100 mg QD, ACEi/ARB Yes): −11.68 (13.23) mmHg
- Mean (SD) Automated Office-Measured Diastolic Blood Pressure at Wk 8 (100 mg QD, ACEi/ARBs No): 71.40 (10.62) mmHg
- Mean (SD) Change from Baseline at Week 8 in Automated Office-Measured Diastolic Blood Pressure (100 mg QD, ACEi/ARBs No): −9.00 (6.21) mmHg
- Mean (SD) Automated Office-Measured Diastolic Blood Pressure at Wk 8 (100 mg QD, ACEi/ARBs Yes): 73.40 (9.37) mmHg
- Mean (SD) Change from Baseline at Week 8 in Automated Office-Measured Diastolic Blood Pressure (100 mg QD, ACEi/ARBs Yes): −4.58 (8.10) mmHg
- Mean (SD) Automated Office-Measured Diastolic Blood Pressure at Wk 8 (100 mg QD, AHTs 2): 74.09 (4.66) mmHg
- Mean (SD) Automated Office-Measured Systolic Blood Pressure at Wk 8 (100 mg QD, AHTs 2): 124.82 (13.25) mmHg
- Mean (SD) Change from Baseline at Week 8 in Automated Office-Measured Diastolic Blood Pressure (100 mg QD, AHTs 2): −8.09 (8.81) mmHg
- Mean (SD) Change from Baseline at Week 8 in Automated Office-Measured Systolic Blood Pressure (100 mg QD, AHTs 2): −17.95 (15.83) mmHg
- Mean (SD) Automated Office-Measured Diastolic Blood Pressure at Wk 8 (100 mg QD, AHTs ≥3): 72.14 (12.08) mmHg
- Mean (SD) Automated Office-Measured Systolic Blood Pressure at Wk 8 (100 mg QD, AHTs ≥3): 136.36 (13.05) mmHg
- Mean (SD) Change from Baseline at Week 8 in Automated Office-Measured Diastolic Blood Pressure (100 mg QD, AHTs ≥3): −3.39 (6.60) mmHg
- Mean (SD) Change from Baseline at Week 8 in Automated Office-Measured Systolic Blood Pressure (100 mg QD, AHTs ≥3): −11.04 (10.45) mmHg
- Mean (SD) Automated Office-Measured Diastolic Blood Pressure at Wk 8 (100 mg QD, Age 65-79 yr): 72.80 (7.89) mmHg
- Mean (SD) Automated Office-Measured Systolic Blood Pressure at Wk 8 (100 mg QD, Age 65-79 yr): 133.73 (12.53) mmHg
- Mean (SD) Change from Baseline at Week 8 in Automated Office-Measured Diastolic Blood Pressure (100 mg QD, Age 65-79 yr): −4.37 (7.01) mmHg
- Mean (SD) Change from Baseline at Week 8 in Automated Office-Measured Systolic Blood Pressure (100 mg QD, Age 65-79 yr): −9.53 (11.49) mmHg
- Mean (SD) Automated Office-Measured Diastolic Blood Pressure at Wk 8 (100 mg QD, Age <65 yr): 78.33 (9.69) mmHg
- Mean (SD) Automated Office-Measured Systolic Blood Pressure at Wk 8 (100 mg QD, Age <65 yr): 129.33 (20.63) mmHg
- Mean (SD) Change from Baseline at Week 8 in Automated Office-Measured Diastolic Blood Pressure (100 mg QD, Age <65 yr): −8.67 (10.16) mmHg
- Mean (SD) Change from Baseline at Week 8 in Automated Office-Measured Systolic Blood Pressure (100 mg QD, Age <65 yr): −22.75 (14.75) mmHg
